EC50 and AC50 data for 50 compounds are collected here from ChEMBL document CHEMBL1201862, “PubChem BioAssay data set” (2004).

The target of test [1] is T1, Heat shock factor protein 1 (Mus musculus, UniProt P38532).
T1 sequence (P38532 whole entry): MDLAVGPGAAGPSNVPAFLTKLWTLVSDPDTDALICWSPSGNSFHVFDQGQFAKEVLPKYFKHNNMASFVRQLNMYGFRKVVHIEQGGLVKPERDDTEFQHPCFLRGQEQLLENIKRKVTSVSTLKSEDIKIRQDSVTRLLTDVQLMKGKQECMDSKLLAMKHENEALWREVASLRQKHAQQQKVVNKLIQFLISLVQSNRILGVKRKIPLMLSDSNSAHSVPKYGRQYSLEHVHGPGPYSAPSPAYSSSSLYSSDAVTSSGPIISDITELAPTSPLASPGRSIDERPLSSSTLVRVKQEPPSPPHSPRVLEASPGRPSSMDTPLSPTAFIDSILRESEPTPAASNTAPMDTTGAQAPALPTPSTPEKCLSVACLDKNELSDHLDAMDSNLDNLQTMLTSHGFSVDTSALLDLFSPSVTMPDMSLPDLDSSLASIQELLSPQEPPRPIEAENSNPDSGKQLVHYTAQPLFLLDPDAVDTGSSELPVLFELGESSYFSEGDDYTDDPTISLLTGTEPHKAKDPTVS
Put plainly: HSF1 potentiators in luciferase reporter cells, confirmation, cell-based, NIH3T3, luminescence, dose retest (AID 435004).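 Further: stress induced by proteasome inhibitor MG132 added 30 min after compound; luciferase reporter driven by HSF1 response element in NIH3T3 cells; actives raise luminescence as potentiators of the MG132 stress response.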 It counts as functional.

The target of a further test is Cytochrome P450 2D6 (Homo sapiens, UniProt P10635).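 Further: CYP2D6 member of a cytochrome P450 panel assay.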
The test system of test [2] is Streptococcus sp. 'group A'. Put plainly: growth inhibition of control SK(-) GAS strain, dose response, counter-screen for streptokinase expression inhibitor project, luminescence, kanamycin, BacTiterGlo, confirmation (AID 1900). It is filed as functional, organism-based.
A further test concerns the target T2, Streptokinase A (Streptococcus pyogenes serotype M1, UniProt P10520).
T2 sequence (P10520 whole entry): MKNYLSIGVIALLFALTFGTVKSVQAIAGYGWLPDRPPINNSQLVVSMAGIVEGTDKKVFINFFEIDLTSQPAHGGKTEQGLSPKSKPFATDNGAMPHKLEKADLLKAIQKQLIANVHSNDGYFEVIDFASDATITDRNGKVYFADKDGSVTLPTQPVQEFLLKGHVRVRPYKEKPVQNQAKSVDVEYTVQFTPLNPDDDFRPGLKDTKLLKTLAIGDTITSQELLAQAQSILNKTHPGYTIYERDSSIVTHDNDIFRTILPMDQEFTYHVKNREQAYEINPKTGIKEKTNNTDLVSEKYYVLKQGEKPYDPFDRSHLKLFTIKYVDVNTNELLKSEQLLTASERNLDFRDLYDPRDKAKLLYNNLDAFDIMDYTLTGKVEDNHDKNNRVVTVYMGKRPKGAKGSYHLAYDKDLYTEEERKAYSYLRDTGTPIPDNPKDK
Put plainly: S. pyogenes streptokinase expression inhibitors, potency, dose response, plasminogen activation absorbance, OD405 (AID 1914).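 Further: secreted streptokinase activity via plasminogen activation per viability signal from cell pellet.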 It is filed as functional, Streptococcus pyogenes M1 GAS.

For a further test, the system named is Streptococcus. As to the kind of experiment: Group A Streptococcus viability loss, dose response, counter-screen for streptokinase expression inhibitor project, luminescence, BacTiterGlo (AID 1915).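 Further: potency for reduction of bacterial viability or growth.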 It is filed as functional, organism-based.
The target in another test is Cytochrome P450 3A4 (Homo sapiens, UniProt P08684).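 Further: CYP3A4 tested as one member of a cytochrome P450 panel screen.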
The target in another test is T3, Cytochrome P450 1A2 (Homo sapiens, UniProt P05177).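 Further: PubChem cytochrome P450 panel assay, CYP1A2 panel member.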
T3 sequence (P05177 whole entry): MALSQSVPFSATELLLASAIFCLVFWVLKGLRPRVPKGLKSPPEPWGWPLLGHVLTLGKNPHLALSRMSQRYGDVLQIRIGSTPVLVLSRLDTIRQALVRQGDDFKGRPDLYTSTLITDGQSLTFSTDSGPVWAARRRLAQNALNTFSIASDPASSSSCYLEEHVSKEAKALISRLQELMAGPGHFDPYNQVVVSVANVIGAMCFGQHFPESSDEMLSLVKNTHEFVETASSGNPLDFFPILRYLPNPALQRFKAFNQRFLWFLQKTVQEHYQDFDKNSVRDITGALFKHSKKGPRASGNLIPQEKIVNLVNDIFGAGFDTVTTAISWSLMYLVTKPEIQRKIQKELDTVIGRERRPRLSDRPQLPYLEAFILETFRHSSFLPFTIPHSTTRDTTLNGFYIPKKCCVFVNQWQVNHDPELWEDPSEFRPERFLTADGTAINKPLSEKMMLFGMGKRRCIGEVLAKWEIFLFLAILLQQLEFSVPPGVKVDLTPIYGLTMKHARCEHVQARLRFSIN

The structures appear in SMILES notation. The source made the active and inactive calls. For most assays here, no stated cut-off is given here; in the data, actives have a measured EC50 and inactives only a lower limit. A value given as a limit tells only on which side of the number the result lay.

Cytochrome P450 3A4, sequence (P08684 whole entry): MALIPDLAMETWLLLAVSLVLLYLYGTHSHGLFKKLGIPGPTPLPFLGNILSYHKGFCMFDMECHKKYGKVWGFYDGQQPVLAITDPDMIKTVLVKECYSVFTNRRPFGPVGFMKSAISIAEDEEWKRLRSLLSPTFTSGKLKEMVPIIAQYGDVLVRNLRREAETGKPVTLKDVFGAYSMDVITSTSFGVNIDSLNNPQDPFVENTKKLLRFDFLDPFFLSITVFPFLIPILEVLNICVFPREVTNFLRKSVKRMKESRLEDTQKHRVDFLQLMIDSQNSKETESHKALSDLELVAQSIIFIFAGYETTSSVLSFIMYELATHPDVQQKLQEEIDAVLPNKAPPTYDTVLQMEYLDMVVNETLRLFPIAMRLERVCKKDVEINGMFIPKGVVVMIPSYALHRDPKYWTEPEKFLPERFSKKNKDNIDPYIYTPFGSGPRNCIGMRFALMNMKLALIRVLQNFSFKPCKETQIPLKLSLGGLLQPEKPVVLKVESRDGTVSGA
Cytochrome P450 2D6, sequence (P10635 whole entry): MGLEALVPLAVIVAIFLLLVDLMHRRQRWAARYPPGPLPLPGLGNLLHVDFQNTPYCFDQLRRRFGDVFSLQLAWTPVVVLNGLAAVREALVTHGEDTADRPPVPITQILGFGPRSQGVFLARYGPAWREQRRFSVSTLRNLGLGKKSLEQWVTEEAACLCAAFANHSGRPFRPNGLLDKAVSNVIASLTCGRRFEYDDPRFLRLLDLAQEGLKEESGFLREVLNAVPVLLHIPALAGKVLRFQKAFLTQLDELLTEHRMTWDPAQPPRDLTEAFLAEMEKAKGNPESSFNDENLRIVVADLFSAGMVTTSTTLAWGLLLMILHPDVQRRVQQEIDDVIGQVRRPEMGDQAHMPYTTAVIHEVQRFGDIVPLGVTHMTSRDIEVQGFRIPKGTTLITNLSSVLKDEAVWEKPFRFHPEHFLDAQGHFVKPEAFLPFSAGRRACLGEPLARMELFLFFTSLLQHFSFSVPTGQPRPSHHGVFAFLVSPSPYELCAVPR

For the compound `CN(C)CCCCNCCCNC(=O)/C=N\O`, in test [1], the EC50 (as a rule, the concentration needed to bring the measured effect to its halfway point) was > 260 µM (inactive).
For the compound `O=C(CCc1nnc(CCCCc2ccccc2)o1)NCCN1CCCCC1=O`, the EC50 in test [1] is > 260 µM (inactive).
As for `COCC(=O)N1CCC2(CC1)CN(c1ccncc1)C2`, the AC50 (in general, the concentration giving half of the maximal activity seen) on Cytochrome P450 2D6 was 25.1 µM (inconclusive).
On to `FC(F)(F)Oc1ccc(N=C(S)Nc2ccc(OC(F)(F)F)cc2)cc1`, for which the EC50 in test [2] is 15.8 µM (active); at Streptokinase A it was > 150 µM (not active); with Streptococcus, 22 µM (active).
The corresponding values for `CC1(C)Cc2c(cnn2-c2ccccc2)C(NC(=O)CCCN2CCCC2=O)C1` (stereo not given) are > 150 µM (not active), > 150 µM (not active) and > 150 µM (not active).
The corresponding values for `Cn1ncc2c(Nc3ccc(Cl)c(Cl)c3)ncnc21` are 7.9 µM (active), > 150 µM (not active) and 16 µM (active).
For the compound `Cc1csc(-c2cnn(-c3ccccc3)c2NC(=O)c2cccc(C(F)(F)F)c2)n1`, the EC50 in test [1] is > 260 µM (inactive).
As for `O=C(Nc1cccc(F)c1)N1CCCCCC1`, the concentration giving a half-maximal response (EC50) (in test [2]; on Streptokinase A; with Streptococcus) was > 150 µM (not active) throughout.
For `Cc1cnc(CNc2ncncc2-c2ccccc2Cl)cn1`, the values for the concentration at half-maximal activity (AC50) at Cytochrome P450 2D6 and on Cytochrome P450 3A4 were 25.1 µM (inconclusive) and 0.251 µM (inconclusive), respectively.
With `O=C(c1ccccc1)[C@H](Nc1ccc2ccccc2c1)c1ccccc1`, at Cytochrome P450 2D6, the AC50 is 1.58 µM (inconclusive).
`COc1ccc(NC(=O)N2CCC3(CC2)CCN(C(=O)c2ccncc2)CC3)cc1`: the AC50 at Cytochrome P450 1A2 is 25.1 µM (inconclusive); on Cytochrome P450 3A4, 15.8 µM (inconclusive).
For `O=C(Nc1ccccc1)/C(=C\c1ccncc1)NC(=O)c1ccccc1`, the AC50 on Cytochrome P450 1A2 was 15.8 µM (inconclusive); on Cytochrome P450 3A4, 0.794 µM (inconclusive).
As to `O=C(NNc1c(Cl)cccc1Cl)C1CCC1`, the EC50 in test [1] is > 260 µM (inactive).
With `CCCCOc1ccc(/C=C/C(=O)NCCc2nc3ccccc3[nH]2)cc1`, the concentration at half-maximal activity (AC50) on Cytochrome P450 2D6 is 14.1 µM (inconclusive).
With `NCCNC(=O)c1ncsc1-c1cccc(F)c1`, the AC50 at Cytochrome P450 3A4 was 31.6 µM (inconclusive).
Regarding `Cc1c(N(C)S(=O)(=O)c2cccc(C(=O)NC(C)C)c2)c(=O)n(-c2ccccc2)n1C`, the EC50 in test [1] is > 260 µM (inactive).
Regarding `Cc1nn(CC(=O)NCc2ccccc2)c(C)c1[N+](=O)[O-]`, at Cytochrome P450 3A4, the concentration at half-maximal activity (AC50) is 22.4 µM (inconclusive).
`CC(=O)Nc1cccc(-n2nnc(SCC(=O)Nc3ccc(F)c(Cl)c3)n2)c1`: in test [1], the EC50 was > 260 µM (inactive).
As for `CC1(C)CC[C@]2(C(=O)O)CC[C@]3(C)C(=CCC4[C@@]5(C)CC[C@H](O)C(C)(C)C5CC[C@]43C)C2C1` (stereo not given in full), the half-maximal effective concentration (EC50) in test [2] is 2.6 µM (active).
`COC(=O)C(NNc1ccccc1C)(NC(=O)c1ccc(F)cc1)C(F)(F)F` (stereo not given): in test [1], the EC50 was > 260 µM (inactive).
On the same count and under the same terms, the value for `CCN(CCCNC(=O)CNC(=O)c1nn(-c2ccc(OC)cc2OC)c(=O)c2ccccc12)c1cccc(C)c1` was > 260 µM (inactive).
As to `Cc1c(C(=O)NCCC2=CCCCC2)cccc1[N+](=O)[O-]`, the figures for the AC50 on Cytochrome P450 2D6, at Cytochrome P450 1A2 and on Cytochrome P450 3A4 were 15.8 µM (inconclusive), 15.8 µM (inconclusive) and 14.1 µM (inconclusive), respectively.
For `N#Cc1ccc(CN2CC3(CCN(C(=O)c4ccncc4)CC3)C2)cc1`, the concentration at half-maximal activity (AC50) at Cytochrome P450 3A4 is 12.6 µM (inconclusive).
As to `CCN(CC)C(=O)c1ccc(C)c(Br)c1`, the EC50 in test [1] is > 260 µM (inactive).
On the same count and under the same terms, the same measure for `CCS(=O)(=O)C(=C1NCCO1)S(=O)(=O)CC`: > 260 µM (inactive).
As to `CN(C)C(=O)c1ccc(-c2nc(NCc3cccs3)c3ccccc3n2)cc1`, the AC50 on Cytochrome P450 2D6 is 25.1 µM (inconclusive).
With `CCc1cccc(CC)c1NC(=O)COC(=O)CC1c2ccccc2CCN1S(=O)(=O)c1ccc(F)cc1` (stereo not given), in test [1], the EC50 was > 260 µM (inactive).
For the compound `O=C(Nc1nnc(SCc2ccc(Cl)cc2)s1)c1ccco1`, the results for the AC50 at Cytochrome P450 1A2 and on Cytochrome P450 3A4 were 3.16 µM (inconclusive) and 31.6 µM (inconclusive), respectively.
As for `Cc1cnn(-c2cc(N/N=C/c3cccc(F)c3)ncn2)c1`, the EC50 in test [1] is > 260 µM (inactive).
For the compound `CC(C)(C)NC(=O)CSc1nnc(Cc2ccc3c(c2)OCO3)n1C1CCCCC1`, the concentration at half-maximal activity (AC50) on Cytochrome P450 2D6 is 2.82 µM (inconclusive).
Turning to `COc1ccc(CCN=C(NS(=O)(=O)c2ccccc2)c2ccccc2)cc1OC`, the EC50 in test [1] is > 260 µM (inactive).
For `COc1cc(/C=N/Nc2snc(SC)c2C#N)cc(OC)c1OC`, the AC50 on Cytochrome P450 2D6 was 12.6 µM (inconclusive).
For the compound `CC(C)(C)c1cc(NC(=O)CCSc2nnc3ccccn23)cc(C(C)(C)C)c1`, the EC50 in test [1] was > 260 µM (inactive).
With `COc1cccc(NC(=O)CSc2nc(N)cc(N)n2)c1`, in test [1], the EC50 was > 260 µM (inactive).
For the compound `CN1CCN(c2ncc3nc(-c4ccccc4)c(=O)n(CCC#N)c3n2)CC1`, the figures for the AC50 at Cytochrome P450 2D6 and on Cytochrome P450 1A2 were 25.1 µM (inconclusive) and 20 µM (inconclusive), respectively.
As for `CCC(Sc1nc2cc3c(cc2c(=O)n1Cc1ccco1)OCO3)C(=O)NCCOC` (stereo not given), the EC50 in test [1] was > 260 µM (inactive).
The same measure, in the same setting: the value for `COc1ccc(C(=O)n2nc(C)cc2Nc2ccccc2)cc1` was 7.2 µM (active).
`CS(=O)(=O)Nc1cccc(-c2nccc(Nc3ccc(F)cc3)n2)c1`: the AC50 at Cytochrome P450 2D6 was 39.8 µM (inconclusive).
On to `Cc1ccc(NS(=O)(=O)c2ccc(C3CCCCC3)cc2)cc1`, for which the EC50 is 4.32 µM (active) in test [2], 4.17 µM (active) on Streptokinase A and 7.04 µM (active) in the test on Streptococcus.
Consider `Cc1ccc(NC(=O)c2cccc(OCc3c(C)noc3C)c2)cc1S(=O)(=O)Nc1ccccc1Cl`, for which the EC50 is > 150 µM (not active) at Streptokinase A and 57.1 µM (active) in the test on Streptococcus.
As to `O=C(O)CSCC(=O)N(Cc1ccccc1)c1nc(-c2ccccc2)c(-c2ccccc2)s1`, the EC50 in test [2] was 0.996 µM (active); at Streptokinase A it was 2.81 µM (active); with Streptococcus, 8.03 µM (active).
As to `CO[C@@H]1CC=C2CCN3CCC4=C(CC(=O)OC4)[C@]23C1`, on Cytochrome P450 3A4, the AC50 is 39.8 µM (inconclusive).
For the compound `COc1cnc(-c2ccccn2)nc1Oc1c(C)cccc1C`, the figures for the EC50 (in test [2]; on Streptokinase A; with Streptococcus) were 6.39 µM (active), > 150 µM (not active) and > 150 µM (not active), respectively.
As for `CCSc1nnc(NC(=O)CSc2nc3c(cc2C#N)CCCC3)s1`, the AC50 was 3.55 µM (inconclusive) at Cytochrome P450 2D6 and 15.8 µM (inconclusive) at Cytochrome P450 1A2.
With `COc1ccc(C(F)(F)F)cc1N/C=C\c1nnnn1-c1ccccc1`, the AC50 is 1.41 µM (inconclusive) at Cytochrome P450 1A2 and 31.6 µM (inconclusive) on Cytochrome P450 3A4.
For the compound `O=C(CSc1nccn(-c2ccc(F)c(F)c2)c1=O)NC1CCCC1`, the EC50 in test [1] is > 260 µM (inactive).
In the case of `CN(C)S(=O)(=O)c1ccc(C(=O)Nc2nnc(-c3ccc4c(c3)CCCC4)o2)cc1`, the EC50 in test [2] was 0.286 µM (active); with Streptococcus it was 0.264 µM (active).
Take `COC(=O)CN1C(c2cccc(Cl)c2)=Nc2ccc(Cl)cc2C1c1ccccc1` (stereo not given): the EC50 in test [1] is > 260 µM (inactive).
Same read-out and setting: the same measure for `C(=N\N1CCN(Cc2cccc3ccccc23)CC1)/c1cccnc1`: > 260 µM (inactive).
As to `CCCCCCCCCCCCC/C=C\[C@@H](O)[C@H](CO)NC(C)=O`, the AC50 at Cytochrome P450 2D6 is 3.98 µM (inconclusive).
